Measurements: patent US9839215B2, “Methods for increasing oil palm yield” (Valent BioSciences Corporation, priority 2015, dated 2017)

Tests used:
[1] = system: oil palm; assay: Field study of cumulative loose fruit (CLF) and cumulative loose mass (CLM) after one-time bunch-directed spray; format: in vivo, oil palm (Compact×Ghana plants); conditions: one spray 100 mL/bunch; for Cumulative Loose Mass / % Difference with UTC (Cumulative Loose Fruit) / % Difference with UTC (Cumulative Loose Mass): 14 days; for % Difference with UTC (Cumulative Loose Fruit) / % Difference with UTC (Cumulative Loose Mass): positive = reduction; for Cumulative Loose Fruit: counted for 14 days
Description: Plant Material: A field study was executed in a plantation in Costa Rica to compare the effects of one-time bunch-directed applications of: (1) water sprayed untreated control (UTC); (2) AVG-HCl at 500 ppm (59.5 g) active ingredient (a.i.); (3) AVG-HCl at 125 ppm (14.9 g) a.i.; (4) 200 ppm (0.2 g) a.i. of NAA; (5) AVG-HCl at 500 ppm (59.5 g) a.i. and 200 ppm (0.2 g) a.i. of NAA; and (6) AVG-HCl at 125 ppm (14.9 g) a.i. and 200 ppm (0.2 g) a.i. of NAA. In this study, AVG was provided in a formulation as AVG-HCl. NAA was provided as the sodium salt at concentrations of 20% and 3.5%. For each treatment, 24 palms per treatment were randomly selected covering about 15 hectares. The palms were Compact×Ghana plants and 2.5 to 3 years old. Treatment Application: A manual DEA-2000 sprayer was used to spray all treatments (100 mL/bunch) to bunches with 1 to 3 loose fruits. The time required to spray each bunch was about 11 to 20 seconds depending on the sprayer. Sprays were conducted only once per bunch. Twelve bunches were sprayed on Oct. 28, 2014 and the other 12 on Nov. 4, 2014. Cumulative loose fruit (CLF) and cumulative loose mass (CLM) counts were determined at daily basis with exception of Sundays for 14 days in order to objectively quantify fruit abscission. An electronic balance was used to weight out all fruit. All loose fruit on the bunch, branches and on the ground was counted and weighed.

[2] = system: oil palms; assay: Oil yield of oil palms after application before harvest of the fruit; format: in vivo, oil palm; conditions: applied before harvest of the fruit
[3] = system: oil palm fruit; conditions: preharvest application to attached bunches of oil palm fruit; cited from earlier work

NCCO/C=C/[C@H](N)C(=O)O (stereo in doubt) [AVG, [S]-trans-2-amino-4-(2-aminoethoxy)-3-butenoic acid]
Cumulative Loose Mass ([1]; AVG-HCl 125 ppm (14.9 g) a.i.): 2028 g | % Difference with UTC (Cumulative Loose Fruit) ([1]; AVG-HCl 125 ppm (14.9 g) a.i.): 3.9% | % Difference with UTC (Cumulative Loose Mass) ([1]; AVG-HCl 125 ppm (14.9 g) a.i.): −5.4% | Cumulative Loose Fruit ([1]; AVG-HCl 125 ppm (14.9 g) a.i.): 160.7 | Cumulative Loose Mass ([1]; AVG-HCl 500 ppm (59.5 g) a.i.): 1154 g | % Difference with UTC (Cumulative Loose Fruit) ([1]; AVG-HCl 500 ppm (59.5 g) a.i.): 48.5% | % Difference with UTC (Cumulative Loose Mass) ([1]; AVG-HCl 500 ppm (59.5 g) a.i.): 40% | Cumulative Loose Fruit ([1]; AVG-HCl 500 ppm (59.5 g) a.i.): 86.1

O=C(O)Cc1cccc2ccccc12 [NAA, 1-naphthaleneacetic acid]
oil yield of oil palms [2]: increases the oil yield | Cumulative Loose Mass ([1]; NAA 200 ppm (0.2 g) a.i.): 1501 g | % Difference with UTC (Cumulative Loose Fruit) ([1]; NAA 200 ppm (0.2 g) a.i.): 31.3% | % Difference with UTC (Cumulative Loose Mass) ([1]; NAA 200 ppm (0.2 g) a.i.): 22% | Cumulative Loose Fruit ([1]; NAA 200 ppm (0.2 g) a.i.): 114.8

O=P(O)(O)CCCl [ethephon, 2-chloroethyl phosphonic acid]
increase of oil content [3]: 7%

C=C1C[C@]23C[C@@]1(O)CC[C@H]2[C@@]12C=C[C@H](O)[C@@](C)(C(=O)O1)[C@H]2[C@@H]3C(=O)O [gibberellic acid]
oil yield of oil palms [2]: inconsistent and unsatisfactory oil yields
